Data from patent US11591369B2, “Alpha(v)beta(6) integrin-binding peptides and methods of use thereof” (priority 2018, dated 2023).
Values joined by “and” are separate entries in the source; they are usually repeats but may differ in a detail not shown here. Equal values may be shown once. Read-outs that look alike come from different tables or passages of the source. Where a SMILES comes first, the peptide text is derived from it. The star is where a group is joined. Benzoyl(4-F) = O=C(c1ccc(F)cc1)*

How the values were obtained:
[1] = 37° C., 1 hour, radio-HPLC
[2] = system: DX3puroβ6 (αvβ6+) cells; assay: [18F]-radiolabeled peptide cell binding and internalization, DX3puroβ6 (αvβ6+) cells; format: cell-based, human
[3] = Circular dichroism (CD) spectroscopy; format: physicochemical; conditions: for % Helical Content CD Buffer: 25 mM phosphate + 100 mM NaF; for % Helical Content CD Buffer + 30% TFE: buffer with 30% trifluoroethanol
[4] = biological target: T1, αvβ6 integrin (Homo sapiens, UniProt P06756+P18564); assay: Competitive binding ELISA against biotinylated LAP (BtLAP), αvβ6 integrin; conditions: for fold drop in affinity for αvβ6: compared to T1
T1 construct: All purified integrins were purchased from R&D Systems (MN, USA); purchased R&D Systems (MN, USA)
T1 sequence (P06756 31-992 limits assumed): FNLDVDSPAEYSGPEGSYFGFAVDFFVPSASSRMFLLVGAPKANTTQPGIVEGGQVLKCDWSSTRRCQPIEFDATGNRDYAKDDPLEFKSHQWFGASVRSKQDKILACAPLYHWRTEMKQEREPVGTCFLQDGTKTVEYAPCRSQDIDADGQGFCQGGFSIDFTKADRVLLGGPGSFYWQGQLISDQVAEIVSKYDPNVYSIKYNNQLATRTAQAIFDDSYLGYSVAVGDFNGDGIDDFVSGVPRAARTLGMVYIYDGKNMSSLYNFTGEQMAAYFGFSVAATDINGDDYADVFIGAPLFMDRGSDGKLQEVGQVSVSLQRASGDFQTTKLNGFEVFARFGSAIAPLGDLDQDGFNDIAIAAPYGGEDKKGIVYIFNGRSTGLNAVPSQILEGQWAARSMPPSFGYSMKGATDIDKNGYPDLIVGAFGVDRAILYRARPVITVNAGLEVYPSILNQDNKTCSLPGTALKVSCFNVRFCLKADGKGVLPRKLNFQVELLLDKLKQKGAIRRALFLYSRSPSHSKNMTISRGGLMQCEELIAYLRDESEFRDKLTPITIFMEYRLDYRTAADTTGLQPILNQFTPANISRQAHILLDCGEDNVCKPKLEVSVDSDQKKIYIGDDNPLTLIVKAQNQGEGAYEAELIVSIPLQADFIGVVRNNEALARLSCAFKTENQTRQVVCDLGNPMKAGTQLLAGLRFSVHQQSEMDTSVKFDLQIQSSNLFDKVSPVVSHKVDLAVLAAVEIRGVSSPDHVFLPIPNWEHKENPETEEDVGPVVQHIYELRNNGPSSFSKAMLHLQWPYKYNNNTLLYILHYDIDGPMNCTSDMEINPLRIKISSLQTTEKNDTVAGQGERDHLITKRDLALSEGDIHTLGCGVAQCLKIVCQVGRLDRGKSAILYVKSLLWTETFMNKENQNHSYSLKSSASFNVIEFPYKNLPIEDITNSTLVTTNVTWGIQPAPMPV
T1 sequence (P18564 22-707 limits assumed): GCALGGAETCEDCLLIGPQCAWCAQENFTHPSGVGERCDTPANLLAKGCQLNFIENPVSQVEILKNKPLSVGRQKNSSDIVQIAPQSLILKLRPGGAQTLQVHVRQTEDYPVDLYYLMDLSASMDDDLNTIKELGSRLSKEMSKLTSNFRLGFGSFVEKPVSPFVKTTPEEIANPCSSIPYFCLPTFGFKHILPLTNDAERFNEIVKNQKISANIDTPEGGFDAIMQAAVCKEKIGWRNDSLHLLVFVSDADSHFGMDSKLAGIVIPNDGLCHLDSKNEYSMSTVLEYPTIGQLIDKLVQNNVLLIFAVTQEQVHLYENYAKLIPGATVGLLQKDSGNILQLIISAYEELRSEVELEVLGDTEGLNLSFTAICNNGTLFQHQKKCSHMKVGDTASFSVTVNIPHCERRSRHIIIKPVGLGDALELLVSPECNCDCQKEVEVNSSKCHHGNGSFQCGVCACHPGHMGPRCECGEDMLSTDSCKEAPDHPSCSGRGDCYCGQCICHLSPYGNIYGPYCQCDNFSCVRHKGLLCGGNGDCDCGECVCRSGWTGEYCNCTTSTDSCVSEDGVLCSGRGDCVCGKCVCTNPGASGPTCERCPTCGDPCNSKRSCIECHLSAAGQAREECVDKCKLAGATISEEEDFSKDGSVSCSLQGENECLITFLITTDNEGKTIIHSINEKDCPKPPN

Row | SMILES | DX3puroβ6 (αvβ6+)/DX3puro (αvβ6−) selectivity ratio ([2]; cell binding, 1 hour) | % Helical Content CD Buffer [3] | % Helical Content CD Buffer + 30% TFE [3] | IC50 [4] | fold drop in affinity for αvβ6 [4] | further results
1 | CC(C)C[C@H](NC(=O)[C@H](Cc1ccc(O)cc1)NC(=O)[C@@H](NC(=O)[C@H](CC(C)C)NC(=O)[C@H](CC(=O)O)NC(=O)CNC(=O)[C@@H](NC(=O)CCOCCOCCOCCOCCOCCOCCOCCOCCOCCOCCOCCOCCOCCOCCOCCOCCOCCOCCOCCOCCOCCOCCOCCOCCOCCOCCOCCOCCNC(=O)c1ccc(F)cc1)C(C)C)[C@@H](C)O)C(=O)N[C@@H](CCCCN)C(=O)N[C@@H](CCC(N)=O)C(=O)N[C@@H](CCCCN)C(=O)N[C@H](C(=O)N[C@@H](C)C(=O)N[C@@H](CCCNC(=N)N)C(=O)N[C@H](C(=O)NCCOCCOCCOCCOCCOCCOCCOCCOCCOCCOCCOCCOCCOCCOCCOCCOCCOCCOCCOCCOCCOCCOCCOCCOCCOCCOCCOCCOCCC(N)=O)[C@@H](C)O)C(C)C [N-[^18F]T1-e] | – | – | – | – | – | intact peptide in mouse serum [1]: > 99%; intact peptide in mouse serum ([1]; 60 min): 100%; percent internalized relative to the amount bound to DX3puroβ6 (αvβ6+) cells ([2]; 1 hour): 25.7±2.2% and 25.7±2.7%; binding to DX3puroβ6 (αvβ6+) cells ([2]; % of total activity, 1 hour, 37° C.): 1.5±0.1%
2 | CC(C)C[C@H](NC(=O)[C@H](CO)NC(=O)[C@H](CC(=O)O)NC(=O)[C@H](CC(C)C)NC(=O)[C@H](CC(=O)O)NC(=O)[C@@H](NC(=O)[C@H](CCCNC(=N)N)NC(=O)c1ccc(F)cc1)[C@@H](C)O)C(=O)N[C@@H](CCCNC(=N)N)C(=O)N[C@H](C(N)=O)[C@@H](C)O [RTD-9mer, reference compound] | 1.7±0.2 :1 | 2.7% | 2.1% | 22 ± 3 nM | – | –
3 | CC(C)C[C@H](NC(=O)[C@H](CO)NC(=O)[C@H](CC(=O)O)NC(=O)[C@H](CC(C)C)NC(=O)[C@H](CC(=O)O)NC(=O)[C@@H](NC(=O)[C@H](CCCNC(=N)N)NC(=O)c1ccc(F)cc1)[C@@H](C)O)C(=O)N[C@@H](CCCNC(=N)N)C(=O)N[C@@H](CCC(N)=O)C(=O)N[C@@H](CCCCN)C(=O)N[C@H](C(=O)N[C@@H](C)C(=O)N[C@@H](CCCNC(=N)N)C(=O)N[C@H](C(N)=O)[C@@H](C)O)C(C)C [RTD-14mer] ({Benzoyl(4-F)}-RTDLDSLRQKVART-NH2) | – | 18.1% | 26.2% | 0.4 ± 0.1 nM | – | DX3puroβ6 (αvβ6+)/DX3puro (αvβ6−) selectivity ratio [2]: 9.1±0.8 :1
4 | CC(C)C[C@H](NC(=O)[C@H](CCCNC(=N)N)NC(=O)CNC(=O)[C@H](CC(C)C)NC(=O)[C@H](CC(=O)O)NC(=O)CNC(=O)[C@H](CCCNC(=N)N)NC(=O)CNC(=O)c1ccc(F)cc1)C(N)=O [SFLAP3-8mer, reference compound] ({Benzoyl(4-F)}-GRGDLGRL-NH2) | 1.4 ± 0.2:1 | 11% | 6.2% | 89 ± 6.5 nM | – | –
5 | CC(C)C[C@H](NC(=O)[C@H](CC(=O)O)NC(=O)CNC(=O)[C@H](CCCNC(=N)N)NC(=O)CNC(=O)c1ccc(F)cc1)C(=O)NCC(=O)N[C@@H](CCCNC(=N)N)C(=O)N[C@@H](CC(C)C)C(=O)N[C@@H](C)C(=O)N[C@@H](CCC(N)=O)C(=O)N[C@@H](CCCCN)C(=O)N[C@H](C(=O)N[C@@H](C)C(=O)N[C@@H](CCCNC(=N)N)C(=O)N[C@H](C(N)=O)[C@@H](C)O)C(C)C [SFLAP3-15mer] ({Benzoyl(4-F)}-GRGDLGRLAQKVART-NH2) | 3.9 ± 0.4:1 | 13.4% | 31.6% | 1.3 ± 0.2 nM | – | –
6 | CC(C)C[C@H](NC(=O)[C@H](Cc1ccc(O)cc1)NC(=O)[C@@H](NC(=O)[C@H](CC(C)C)NC(=O)[C@H](CC(=O)O)NC(=O)CNC(=O)[C@@H](NC(=O)COCCOCCNC(=O)c1ccc(F)cc1)C(C)C)[C@@H](C)O)C(=O)N[C@@H](CCCCN)C(=O)N[C@@H](CCC(N)=O)C(=O)N[C@@H](CCCCN)C(=O)N[C@H](C(=O)N[C@@H](C)C(=O)N[C@@H](CCCNC(=N)N)C(=O)N[C@H](C(=O)NCCOCCOCCOCCOCCOCCOCCOCCOCCOCCOCCOCCOCCOCCOCCOCCOCCOCCOCCOCCOCCOCCOCCOCCOCCOCCOCCOCCOCCC(N)=O)[C@@H](C)O)C(C)C [T1-a] | – | – | – | – | 24 fold | –
7 | CC(C)C[C@H](NC(=O)[C@H](Cc1ccc(O)cc1)NC(=O)[C@@H](NC(=O)[C@H](CC(C)C)NC(=O)[C@H](CC(=O)O)NC(=O)CNC(=O)[C@@H](NC(=O)CCOCCOCCOCCOCCNC(=O)c1ccc(F)cc1)C(C)C)[C@@H](C)O)C(=O)N[C@@H](CCCCN)C(=O)N[C@@H](CCC(N)=O)C(=O)N[C@@H](CCCCN)C(=O)N[C@H](C(=O)N[C@@H](C)C(=O)N[C@@H](CCCNC(=N)N)C(=O)N[C@H](C(=O)NCCOCCOCCOCCOCCOCCOCCOCCOCCOCCOCCOCCOCCOCCOCCOCCOCCOCCOCCOCCOCCOCCOCCOCCOCCOCCOCCOCCOCCC(N)=O)[C@@H](C)O)C(C)C [T1-b] | – | – | – | – | 13 fold | –
8 | CC(C)C[C@H](NC(=O)[C@H](Cc1ccc(O)cc1)NC(=O)[C@@H](NC(=O)[C@H](CC(C)C)NC(=O)[C@H](CC(=O)O)NC(=O)CNC(=O)[C@@H](NC(=O)CCOCCOCCOCCOCCOCCOCCOCCOCCNC(=O)c1ccc(F)cc1)C(C)C)[C@@H](C)O)C(=O)N[C@@H](CCCCN)C(=O)N[C@@H](CCC(N)=O)C(=O)N[C@@H](CCCCN)C(=O)N[C@H](C(=O)N[C@@H](C)C(=O)N[C@@H](CCCNC(=N)N)C(=O)N[C@H](C(=O)NCCOCCOCCOCCOCCOCCOCCOCCOCCOCCOCCOCCOCCOCCOCCOCCOCCOCCOCCOCCOCCOCCOCCOCCOCCOCCOCCOCCOCCC(N)=O)[C@@H](C)O)C(C)C [T1-c] | – | – | – | – | 50 fold | –
9 | CC(C)C[C@H](NC(=O)[C@H](Cc1ccc(O)cc1)NC(=O)[C@@H](NC(=O)[C@H](CC(C)C)NC(=O)[C@H](CC(=O)O)NC(=O)CNC(=O)[C@@H](NC(=O)CCOCCOCCOCCOCCOCCOCCOCCOCCOCCOCCOCCOCCNC(=O)c1ccc(F)cc1)C(C)C)[C@@H](C)O)C(=O)N[C@@H](CCCCN)C(=O)N[C@@H](CCC(N)=O)C(=O)N[C@@H](CCCCN)C(=O)N[C@H](C(=O)N[C@@H](C)C(=O)N[C@@H](CCCNC(=N)N)C(=O)N[C@H](C(=O)NCCOCCOCCOCCOCCOCCOCCOCCOCCOCCOCCOCCOCCOCCOCCOCCOCCOCCOCCOCCOCCOCCOCCOCCOCCOCCOCCOCCOCCC(N)=O)[C@@H](C)O)C(C)C [T1-d] | – | – | – | – | 9 fold | –
